What is called pIC50 is the negative decadic logarithm of the IC50, by convention in mol/L. Read a low pIC50 as a large IC50.

This note sets out measurements from BindingDB's records for doi:10.1016/j.bmcl.2003.11.081 (Cubist Pharmaceuticals, 2004).

In experiment [1] the target is T1, Phenylalanine--tRNA ligase, mitochondrial (Homo sapiens, UniProt O95363).
T1 sequence (O95363 whole entry): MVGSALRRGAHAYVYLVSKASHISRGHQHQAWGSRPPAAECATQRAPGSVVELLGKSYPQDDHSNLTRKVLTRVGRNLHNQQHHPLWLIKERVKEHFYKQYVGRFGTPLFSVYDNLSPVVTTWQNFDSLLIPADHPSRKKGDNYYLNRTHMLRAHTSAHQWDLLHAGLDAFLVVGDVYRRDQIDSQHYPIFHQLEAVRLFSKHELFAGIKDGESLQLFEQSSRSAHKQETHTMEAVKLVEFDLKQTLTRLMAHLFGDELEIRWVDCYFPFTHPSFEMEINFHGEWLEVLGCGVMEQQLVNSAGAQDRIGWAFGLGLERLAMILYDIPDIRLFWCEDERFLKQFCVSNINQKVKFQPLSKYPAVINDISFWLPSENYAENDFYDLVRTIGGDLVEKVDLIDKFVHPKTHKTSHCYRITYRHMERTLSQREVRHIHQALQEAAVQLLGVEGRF
The experiment is described as follows: ChEBML_154873. Here is the method: (§1) Inhibitory activity against human phenylalanyl-tRNA synthetase was determined

For experiment [2], the target named is T1, Phenylalanine--tRNA ligase, mitochondrial. The experiment is described as §1.
The target of experiment [3] is Phenylalanine--tRNA ligase (Enterococcus faecalis). Nature of the experiment: Inhibitory activity against phenylalanyl-tRNA synthetase from Enterococcus faecalis.
Experiment [4] has the same target. The description is as above. The source holds these as a separate data set.
Experiment [5] addresses Phenylalanine--tRNA ligase (Staphylococcus aureus). The experiment is described as follows: Inhibitory activity against phenylalanyl-tRNA synthetase from Staphylococcus aureus.

pIC50: −log10 of the molar value.

In the case of `Oc1c2c(c(O)n1-c1ccc(Cl)c(Cl)c1)C1(Cc3ccccc3C1)NC2c1ccccc1` (stereo unspecified), the negative-log IC50 (pIC50) in experiment [1], in experiment [2], in experiment [3], in experiment [4] and in experiment [5] was below 4.00 each time.

As for `O=C1c2ccccc2C(=O)C12OC(c1ccccc1)c1c2c(O)n(-c2ccc(Cl)c(C(F)(F)F)c2)c1O` [5-(4-chloro-3-trifluoromethylphenyl)-3-phenyl-(3R,3aS,6aR)-spiro[perhydrofuro[3,4-c]pyrrole-1,2'-(2',3'-dihydro-1'H-indene)]-1',3',4,6-tetraone], the pIC50 in experiment [3] is 4.49; in experiment [5] it was 4.35.

With `O=C1c2ccccc2C(=O)C12OC(c1ccccc1)c1c2c(O)n(-c2ccc([N+](=O)[O-])cc2)c1O` [5-(4-nitrophenyl)-3-phenyl-(3R,3aS,6aR)-spiro[perhydrofuro[3,4-c]pyrrole-1,2'-(2',3'-dihydro-1'H-indene)]-1',3',4,6-tetraone], the negative logarithm of the IC50 (pIC50) in experiment [1], in experiment [3] and in experiment [5] was below 4.00 in each case.

In the case of `Cc1ccc(C2OC3(C(=O)c4ccccc4C3=O)c3c2c(O)n(-c2ccc4c(c2)OCO4)c3O)cc1` [5-benzo[d][1,3]dioxol-5-yl-3-(4-methylphenyl)-(3R,3aS,6aR)-spiro[perhydrofuro[3,4-c]pyrrole-1,2'-(2',3'-dihydro-1'H-indene)]-1',3',4,6-tetraone], the pIC50 in experiment [1], in experiment [3] and in experiment [4] was below 4.00 throughout.

`COC(=O)C1NC(c2ccccc2)c2c1c(O)n(-c1ccc(Cl)c(Cl)c1)c2O` [methyl 5-(3,4-dichlorophenyl)-4,6-dioxo-3-phenyl-(3R,3aS,6aR)-perhydropyrrolo[3,4-c]pyrrole-1-carboxylate]: the pIC50 in experiment [1], in experiment [3] and in experiment [4] was below 4.00 in each case.
